Among the data in patent publication US8802661B2, “C-28 amides of modified C-3 betulinic acid derivatives as HIV maturation inhibitors” (priority 2010, dated 2014) are EC50 values, retold here.

The assay relates to recombinant NL4-3 virus (Renilla luciferase in nef, Gag P373S). Description: HIV Cell Culture Assay (luciferase reporter virus in MT-2 cells). Type of assay: cell-based. As to conditions: NL43, read-out: EC50 Group. A digest of the protocol: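 Virus from 293T transfection, titered in MT-2 by luciferase. MT-2 (RPMI, 10% HI-FBS) infected ± inhibitor serial dilutions, 4-5 d. Readout: Dual Luciferase premix (lysis:reagent:Stop & Glo 2:1:1), immediate luminescence.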
(In general: Reporter assays use an easily measured gene product as a stand-in for the process of interest.)
As a reminder, the EC50 is the midpoint of the concentration-response curve. In the case of `C=C(C)[C@@H]1CC[C@]2(C(=O)NCCN(CC(=O)O)Cc3ccccc3)CC[C@]3(C)[C@H](CC[C@@H]4[C@@]5(C)CC=C(c6ccc(C(=O)O)cc6)C(C)(C)[C@@H]5CC[C@]43C)[C@@H]12` [Example 107, 4-((1R,3aS,5aR,5bR,7aR,11aS,11bR,13aR,13bR)-3a-(2-(benzyl(carboxymethyl)amino)ethylcarbamoyl)-5a,5b,8,8,11a-pentamethyl-1-(prop-1-en-2-yl)-2,3,3a,4,5,5a,5b,6,7,7a,8,11,11a,11b,12,13,13a,13b-octadecahydro-1H-cyclopenta[a]chrysen-9-yl)benzoic acid], the EC50 was less than 0.1 µM.
The result for `C=C(C)[C@@H]1CC[C@]2(C(=O)NS(=O)(=O)N(C)C)CC[C@]3(C)[C@H](CC[C@@H]4[C@@]5(C)CC=C(c6ccc(C(=O)O)cc6)C(C)(C)[C@@H]5CC[C@]43C)[C@@H]12` [Example 7, 4-((1R,3aS,5aR,5bR,7aR,11aS,11bR,13aR,13bR)-3a-(N,N-dimethylsulfamoylcarbamoyl)-5a,5b,8,8,11a-pentamethyl-1-(prop-1-en-2-yl)-2,3,3a,4,5,5a,5b,6,7,7a,8,11,11a,11b,12,13,13a,13b-octadecahydro-1H-cyclopenta[a]chrysen-9-yl)benzoic acid] reads less than 0.1 µM; that for `C=C(C)[C@@H]1CC[C@]2(C(=O)NCCN(CCC(=O)O)CCC(=O)O)CC[C@]3(C)[C@H](CC[C@@H]4[C@@]5(C)CC=C(c6ccc(C(=O)O)cc6)C(C)(C)[C@@H]5CC[C@]43C)[C@@H]12` [Example 90, 3,3′-(2-((1R,3aS,5aR,5bR,7aR,11aS,11bR,13aR,13bR)-9-(4-carboxyphenyl)-5a,5b,8,8,11a-pentamethyl-1-(prop-1-en-2-yl)-2,3,3a,4,5,5a,5b,6,7,7a,8,11,11a,11b,12,13,13a,13b-octadecahydro-1H-cyclopenta[a]chrysene-3a-carboxamido)ethylazanediyl)dipropanoic acid], greater than 0.1 µM.
Consider `C=C(C)[C@@H]1CC[C@]2(C(=O)NCCN(CC)CCC(=O)O)CC[C@]3(C)[C@H](CC[C@@H]4[C@@]5(C)CC=C(c6ccc(C(=O)O)cc6)C(C)(C)[C@@H]5CC[C@]43C)[C@@H]12` [Example 89, 4-((1R,3aS,5aR,5bR,7aR,11aS,11bR,13aR,13bR)-3a-(2-((2-carboxyethyl)(ethyl)amino)ethylcarbamoyl)-5a,5b,8,8,11a-pentamethyl-1-(prop-1-en-2-yl)-2,3,3a,4,5,5a,5b,6,7,7a,8,11,11a,11b,12,13,13a,13b-octadecahydro-1H-cyclopenta[a]chrysen-9-yl)benzoic acid], for which the EC50 is less than 0.1 µM.
For the compound `C=C(C)[C@@H]1CC[C@]2(C(=O)NCCO)CC[C@]3(C)[C@H](CC[C@@H]4[C@@]5(C)CC=C(c6ccc(C(=O)O)cc6)C(C)(C)[C@@H]5CC[C@]43C)[C@@H]12` [Example 17, 4-((1R,3aS,5aR,5bR,7aR,11aS,11bR,13aR,13bR)-3a-(2-hydroxyethylcarbamoyl)-5a,5b,8,8,11a-pentamethyl-1-(prop-1-en-2-yl)-2,3,3a,4,5,5a,5b,6,7,7a,8,11,11a,11b,12,13,13a,13b-octadecahydro-1H-cyclopenta[a]chrysen-9-yl)benzoic acid], the EC50 was less than 0.1 µM.
The result for `CN(C)CCNC(=O)[C@]12CCC(C)(C)C[C@H]1C1=CC[C@@H]3[C@@]4(C)CC=C(c5ccc(C(=O)O)cc5)C(C)(C)[C@@H]4CC[C@@]3(C)[C@]1(C)CC2` [Example B1, 4-((4aR,6aR,6bS,8aS,12aS,14aR,14bS)-8a-(2-(dimethylamino)ethylcarbamoyl)-4,4,6a,6b,11,11,14b-heptamethyl-1,4,4a,5,6,6a,6b,7,8,8a,9,10,11,12,12a,14,14a,14b-octadecahydropicen-3-yl)benzoic acid] reads less than 0.1 µM.
For `C=C(C)[C@@H]1CC[C@]2(C(=O)N[C@H](C(=O)O)C(C)C)CC[C@]3(C)[C@H](CC[C@@H]4[C@@]5(C)CC=C(c6ccc(C(=O)O)cc6)C(C)(C)[C@@H]5CC[C@]43C)[C@@H]12` [Example 61, 4-((1R,3aS,5aR,5bR,7aR,11aS,11bR,13aR,13bR)-3a-((S)-1-carboxy-2-methylpropylcarbamoyl)-5a,5b,8,8,11a-pentamethyl-1-(prop-1-en-2-yl)-2,3,3a,4,5,5a,5b,6,7,7a,8,11,11a,11b,12,13,13a,13b-octadecahydro-1H-cyclopenta[a]chrysen-9-yl)benzoic acid], the EC50 was less than 0.1 µM.
For `C=C(C)[C@@H]1CC[C@]2(C(=O)NCCNCCS(=O)(=O)O)CC[C@]3(C)[C@H](CC[C@@H]4[C@@]5(C)CC=C(c6ccc(C(=O)O)cc6)C(C)(C)[C@@H]5CC[C@]43C)[C@@H]12` [Example 92, 4-((1R,3aS,5aR,5bR,7aR,11aS,11bR,13aR,13bR)-5a,5b,8,8,11a-pentamethyl-1-(prop-1-en-2-yl)-3a-(2-(2-sulfoethylamino)ethylcarbamoyl)-2,3,3a,4,5,5a,5b,6,7,7a,8,11,11a,11b,12,13,13a,13b-octadecahydro-1H-cyclopenta[a]chrysen-9-yl)benzoic acid], the EC50 was less than 0.1 µM.
On to `C=C(C)[C@@H]1CC[C@]2(C(=O)NCCN(CCC)CC(=O)O)CC[C@]3(C)[C@H](CC[C@@H]4[C@@]5(C)CC=C(c6ccc(C(=O)O)cc6)C(C)(C)[C@@H]5CC[C@]43C)[C@@H]12` [Example 94, 4-((1R,3aS,5aR,5bR,7aR,11aS,11bR,13aR,13bR)-3a-(2-((carboxymethyl)(propyl)amino)ethylcarbamoyl)-5a,5b,8,8,11a-pentamethyl-1-(prop-1-en-2-yl)-2,3,3a,4,5,5a,5b,6,7,7a,8,11,11a,11b,12,13,13a,13b-octadecahydro-1H-cyclopenta[a]chrysen-9-yl)benzoic acid], for which the EC50 is less than 0.1 µM.
Turning to `C=C(C)[C@@H]1CC[C@]2(C(=O)NCc3ccccn3)CC[C@]3(C)[C@H](CC[C@@H]4[C@@]5(C)CC=C(c6ccc(C(=O)O)cc6)C(C)(C)[C@@H]5CC[C@]43C)[C@@H]12` [Example 2, 4-((1R,3aS,5aR,5bR,7aR,11aS,11bR,13aR,13bR)-5a,5b,8,8,11a-pentamethyl-1-(prop-1-en-2-yl)-3a-(pyridin-2-ylmethylcarbamoyl)-2,3,3a,4,5,5a,5b,6,7,7a,8,11,11a,11b,12,13,13a,13b-octadecahydro-1H-cyclopenta[a]chrysen-9-yl)benzoic acid], the EC50 was less than 0.1 µM.
Consider `C=C(C)[C@@H]1CC[C@]2(C(=O)N3CCC[C@@H]3CO)CC[C@]3(C)[C@H](CC[C@@H]4[C@@]5(C)CC=C(c6ccc(C(=O)O)cc6)C(C)(C)[C@@H]5CC[C@]43C)[C@@H]12` [Example 9, 4-((1R,3aS,5aR,5bR,7aR,11aS,11bR,13aR,13bR)-3a-((R)-2-(hydroxymethyl)pyrrolidine-1-carbonyl)-5a,5b,8,8,11a-pentamethyl-1-(prop-1-en-2-yl)-2,3,3a,4,5,5a,5b,6,7,7a,8,11,11a,11b,12,13,13a,13b-octadecahydro-1H-cyclopenta[a]chrysen-9-yl)benzoic acid], for which the EC50 is less than 0.1 µM.
The result for `C=C(C)[C@@H]1CC[C@]2(C(=O)Nc3nncs3)CC[C@]3(C)[C@H](CC[C@@H]4[C@@]5(C)CC=C(c6ccc(C(=O)O)cc6)C(C)(C)[C@@H]5CC[C@]43C)[C@@H]12` [Example 51, 4-((1R,3aS,5aR,5bR,7aR,11aS,11bR,13aR,13bR)-3a-(1,3,4-thiadiazol-2-ylcarbamoyl)-5a,5b,8,8,11a-pentamethyl-1-(prop-1-en-2-yl)-2,3,3a,4,5,5a,5b,6,7,7a,8,11,11a,11b,12,13,13a,13b-octadecahydro-1H-cyclopenta[a]chrysen-9-yl)benzoic acid] reads less than 0.1 µM; that for `C=C(C)[C@@H]1CC[C@]2(C(=O)NC(C)c3nnc(C)[nH]3)CC[C@]3(C)[C@H](CC[C@@H]4[C@@]5(C)CC=C(c6ccc(C(=O)O)cc6)C(C)(C)[C@@H]5CC[C@]43C)[C@@H]12` (stereo partly drawn) [Example 44, 4-((1R,3aS,5aR,5bR,7aR,11aS,11bR,13aR,13bR)-5a,5b,8,8,11a-pentamethyl-3a-(1-(5-methyl-4H-1,2,4-triazol-3-yl)ethylcarbamoyl)-1-(prop-1-en-2-yl)-2,3,3a,4,5,5a,5b,6,7,7a,8,11,11a,11b,12,13,13a,13b-octadecahydro-1H-cyclopenta[a]chrysen-9-yl)benzoic acid], less than 0.1 µM; that for `C=C(C)[C@@H]1CC[C@]2(C(=O)NCCCN(CC)CCCC(=O)O)CC[C@]3(C)[C@H](CC[C@@H]4[C@@]5(C)CC=C(c6ccc(C(=O)O)cc6)C(C)(C)[C@@H]5CC[C@]43C)[C@@H]12` [Example 101, 4-((1R,3aS,5aR,5bR,7aR,11aS,11bR,13aR,13bR)-3a-(3-((3-carboxypropyl)(ethyl)amino)propylcarbamoyl)-5a,5b,8,8,11a-pentamethyl-1-(prop-1-en-2-yl)-2,3,3a,4,5,5a,5b,6,7,7a,8,11,11a,11b,12,13,13a,13b-octadecahydro-1H-cyclopenta[a]chrysen-9-yl)benzoic acid], less than 0.1 µM.
The result for `C=C(C)[C@@H]1CC[C@]2(C(=O)NCCCN3CCS(=O)(=O)CC3)CC[C@]3(C)[C@H](CC[C@@H]4[C@@]5(C)CC=C(c6ccc(C(=O)O)c(C(=O)O)c6)C(C)(C)[C@@H]5CC[C@]43C)[C@@H]12` [Example 112, 4-((1R,3aS,5aR,5bR,7aR,11aS,11bR,13aR,13bR)-3a-((3-(1,1-dioxido-4-thiomorpholinyl)propyl)carbamoyl)-1-isopropenyl-5a,5b,8,8,11a-pentamethyl-2,3,3a,4,5,5a,5b,6,7,7a,8,11,11a,11b,12,13,13a,13b-octadecahydro-1H-cyclopenta[a]chrysen-9-yl)phthalic acid] reads less than 0.1 µM.
